Values quoted from earlier work in patent publication US9339034B2, “Use of thaxtomin for selective control of rice and aquatic based weeds” (MARRONE BIO INNOVATIONS, INC., priority 2009, dated 2016).

System: weeds
Settings: in vivo; cited from earlier work

## C=C(CO)C(C)(O)CC(=O)O (stereo not shown) [mevalocidin]
  time to kill weeds: 3-4 weeks
